# PMC12693419, “Design, Synthesis, Biological Evaluation, and In Silico Studies of Novel Multitarget Cinnamic Acid Hybrids” (Molecules, 2025)
# Like-named read-outs stand apart in the source and are kept apart here.
# Experiments:
# [1] = In vitro inhibition of linoleic acid lipid peroxidation (AAPH); conditions: 100 μM; anti-lipid peroxidation
# How it was run: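 Thermal decomposition of AAPH generated alkylperoxy radicals that oxidized sodium linoleate in aqueous dispersion at 37 °C. Formation of conjugated diene hydroperoxides was followed by absorbance at 234 nm, with Trolox as reference.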
# U87 cells = experiment: MTT viability assay; assay type: cell-based; conditions: Homo sapiens, U-87 MG, 48 h
# MDA-MB-435 cells = experiment: MTT viability assay; assay type: cell-based; conditions: Homo sapiens, 48 h
# U251 cells = experiment: MTT viability assay; assay type: cell-based; conditions: Homo sapiens, U-251, 48 h
# MDA-MB-231 cells = experiment: MTT viability assay; assay type: cell-based; conditions: Homo sapiens, 48 h
# [2] = In vitro determination of NO release with Griess reagent; conditions: 100 μM, L-cysteine, pH 7.4, 37 °C, 60 min
# Source text: This assay evaluates the ability of nitrate esters to release nitric oxide (NO). First, sodium nitroprusside (SNP) reacts with the thiol compound, cysteine, which serves as a reducing agent (Scheme 5). The thiol donates electrons, facilitating the breakdown of the nitroprusside complex. Afterwards, the reaction leads to the formation of intermediate complexes, such as nitrosothiol species and the decomposition of these intermediates results in the release of nitric oxide (NO). According to the literature, measurements are conducted both in the presence and absence of the thiol agent, cysteine. No significant difference was observed between the two experimental conditions, and the results were reproducible. Sodium nitroprusside (SNP) was used as the reference compound [65].
# The compounds (from a 10 mM stock solution in DMSO, final concentration 100 μM) are added (20 μL) to each test tube. Then, 2 mL of phosphate buffer solution (pH 7.4) is added. L-cysteine, used as the thiol agent, is added to the mixture at a final concentration of 0.5 mM. The solution is incubated at 37 °C for 60 min, after which 1 mL is removed and mixed with 250 μL of Griess reagent (4 g sulfanilamide, 0.2 g N-(1-naphthyl)-ethylenediamine dihydrochloride, and 10 mL of H3PO4 solution, final volume adjusted to 100 mL). The mixture is allowed to stand for 10 min at room temperature, and the absorbance of the produced compound is measured at 540 nm. Sodium nitroprusside (SNP) is used as the reference compound. The results are presented as the release of NO2^− (% NO2^− (mol/mol)) induced by the compounds in the presence of L-cysteine (Table 6).
# [3] = system: multiple cancer cell lines; experiment: MTT viability assay, summary over several lines; assay type: cell-based
# Procedure: HeLa, MCF-7, U251, U87, MDA-MB-435, and MDA-MB-231 cancer cell lines were maintained in incubators at 37 °C with 5% CO2 in DMEM medium supplemented with 10% (v/v) fetal bovine serum (FBS) and antibiotics/antimycotics. All cell lines used in this study originate from the Laboratory of Biochemistry, Department of Chemistry, Aristotle University of Thessaloniki. They are low-passage, mycoplasma-free cancer cell lines that have been extensively used over the past 25 years in numerous studies across various fields of cancer research, including drug cytotoxicity testing.
# All cell lines tested were seeded in 96-well plates at a concentration of 6 × 10^3 cells per well, except HeLa, which were seeded at 3 × 10^3 cells per well. The day after, cells were exposed to increasing concentrations of the compounds for 48 h. Cell viability was determined using the 3-(4,5-dimethylthiazol-2-yl)-2,5-diphenyltetrazolium bromide (MTT) assay, a colorimetric assessment of cellular metabolic activity as described previously. Absorbance values from treated samples were normalized to those of untreated controls, which were assigned to a 100% viability value.
# bovine serum albumin = molecular target: T1, bovine serum albumin (Bos taurus, UniProt P02769); experiment: In vitro inhibition of albumin denaturation; conditions: heat denaturation, 60 °C 10 min
# T1 construct: bovine serum albumin solution (fraction V); purchased Merck and Sigma-Aldrich; host or cells: bovine serum (fraction V)
# T1 sequence (P02769 25-607): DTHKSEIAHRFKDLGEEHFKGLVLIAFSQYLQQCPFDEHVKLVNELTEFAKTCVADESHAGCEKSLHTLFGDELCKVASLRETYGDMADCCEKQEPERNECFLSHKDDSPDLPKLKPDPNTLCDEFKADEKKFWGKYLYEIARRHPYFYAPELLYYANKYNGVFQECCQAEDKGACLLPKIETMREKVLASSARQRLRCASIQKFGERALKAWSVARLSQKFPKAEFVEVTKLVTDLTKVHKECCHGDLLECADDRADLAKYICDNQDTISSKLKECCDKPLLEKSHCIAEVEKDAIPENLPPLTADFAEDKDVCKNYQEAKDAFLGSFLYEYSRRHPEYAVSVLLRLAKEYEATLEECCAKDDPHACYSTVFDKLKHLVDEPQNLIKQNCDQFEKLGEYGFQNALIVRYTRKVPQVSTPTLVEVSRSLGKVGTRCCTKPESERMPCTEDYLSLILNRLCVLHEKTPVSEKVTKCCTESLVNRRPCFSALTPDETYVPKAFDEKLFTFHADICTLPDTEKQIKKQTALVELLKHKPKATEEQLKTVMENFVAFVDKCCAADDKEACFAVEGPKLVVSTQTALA
# How it was run: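 Bovine serum albumin (fraction V, 1% w/v in phosphate buffer, pH 7.4) mixed with test compound, held 15 min at 37 °C, then heated 10 min at 60 °C. After cooling, turbidity read as absorbance at 660 nm against a DMSO blank.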
EC50 (U87 cells) [µM],EC50 (MDA-MB-435 cells) [µM],EC50 (U251 cells) [µM],EC50 (MDA-MB-231 cells) [µM],"EC50 ([3]; U251, U87, and MDA-MB-231, read-out: EC50 values in the remaining cell lines) [µM]",EC50 ([3]; read-out: EC50 values across multiple cancer cell lines) [µM],Albumin (inhibition of albumin denaturation) (bovine serum albumin),Compound,AAPH Inh. at 100 μΜ [1] [%],%NO2^− Release mol/mol at 100 μΜ [2]
45.4,52.9,40.9,42.8,40.9 to 45.4,36 to 45,no,"C/C(=N\O)c1ccc(NC(=O)COC(=O)/C(=C/c2cccs2)c2ccccc2)cc1 [Compound 6i, 2-((4-((E)-1-(Hydroxyimino)ethyl)phenyl)amino)-2-oxoethyl (E)-2-phenyl-3-(thiophen-2-yl)acrylate]",28,no activity and no
–,–,–,–,–,–,no,"O=C(/C=C/c1cc2ccccc2s1)OCc1c(-c2ccccc2)no[n+]1[O-] [Compound 9e, (E)-3-(((3-(Benzo[b]thiophen-2-yl)acryloyl)oxy)methyl)-4-phenyl-1,2,5-oxadiazole 2-oxide]",67,no
–,–,–,–,–,–,no,"C/C(=N\O)c1ccc(NC(=O)COC(=O)/C=C/c2cccs2)cc1 [Compound 6c, 2-((4-((E)-1-(Hydroxyimino)ethyl)phenyl)amino)-2-oxoethyl (E)-3-(thiophen-2-yl)acrylate]",4,4%
